This note sets out measurements from US20250368633A1, “AZEPINE FUSED RING COMPOUND AS RIPK1 INHIBITOR AND USE THEREOF” (ARTIVILA BIOPHARMA, priority 2022, published 2025).

For assay [1], the system named is U937 cells. Briefly: Inhibition rate of compound (1 μM) on necroptosis of U937 cells (TSZ-induced, CellTiter-Glo). The format is cell-based. The following applies: TSZ (hTNF-α, SM-164, Z-VAD-FMK) 20 hours. As for the experimental part:
(§1) The biological activity of RIPK1 inhibitors was further evaluated in the inhibition of necroptosis in U937 cells. U937 cell line was purchased from Huatuo Biotechnology and stored in liquid nitrogen. U937 cells were revived before the experiment and cultured in RPMI-1640 medium (supplemented with 10% fetal bovine serum, 100 U/mL penicillin and 100 μg/mL streptomycin) at 37° C., 5% CO2. The activity was further evaluated by the cellular ATP level detected by the Promega CellTiter-Glo 2.0 Assay cell viability assay kit (Catalog No.: G9242).
The experimental method was briefly described as below. U937 cells in the logarithmic growth phase were collected by centrifugation. Cells were diluted at the density of 5×10^5 cells/mL with RPMI 1640 medium (supplemented with 10% fetal bovine serum, 100 U/mL penicillin and 100 μg/mL streptomycin). The cell suspension was added to a white sterile 384-well cell culture plate at 15 μL/well. The test compound was dissolved in DMSO to prepare a 10 mM stock solution and diluted to 10 μM with culture medium. At the same time, a control with the same DMSO volume was set up. Two replicates were added for each concentration. The diluted compound was added to the 384-well cell culture plate containing cells at 2.5 µL/well and incubated at 37° C., 5% CO2 for 15 minutes. Z-VAD-FMK (Biyuntian, catalog number: C1202-5 mg) was dissolved in DMSO to prepare a 20 mM stock solution. SM-164 (Biyuntian, catalog number: SC0114-10 mM) was dissolved in DMSO to prepare a 10 mM stock solution and diluted to 0.1 mM. hTNF-α (Sino Biological Inc., catalog number: 10602-HNAE) was dissolved in sterile water to 10 μg/mL. RPMI 1640 medium (supplemented with 10% fetal bovine serum, 100 U/mL penicillin and 100 μg/mL streptomycin) was used to prepare the TSZ mixture, containing 133.3 μM Z-VAD-FMK, 33.3 ng/ml hTNF-α and 0.3 μM SM-164. After 15 minutes' coculture of compounds and cells, 7.5 μL of TSZ mixture was added to each well, mixed evenly, and cultured at 37° C., 5% CO2 for 20 hours. After 20 hours, the culture plate was removed and placed at room temperature for 30 minutes. 10 μL of CellTiter-Glo reagent pre-equilibrated at room temperature was added to each well and incubated for 10 minutes from light. The chemiluminescence was read by a microplate reader. The inhibition rate was calculated as Inh %=(1−(no TSZ-TSZ & compound)/(no TSZ-TSZ))×100.

Assay [2] relates to U937 cells. Briefly: EC50 of necroptosis inhibition in U937 cells (TSZ-induced, CellTiter-Glo). The format is cell-based. The following applies: Homo sapiens, U-937; TSZ (hTNF-α, SM-164, Z-VAD-FMK) 20 hours; 10 concentration points; read-out: EC50 intervals of necroptosis inhibition in U937 cells. As for the experimental part:
as §1
The experimental method was briefly described as below. U937 cells in the logarithmic growth phase were collected by centrifugation. Cells were diluted to the cell density of 5×10^5 cells/mL with RPMI 1640 medium (supplemented with 10% fetal bovine serum, 100 U/mL penicillin and 100 μg/mL streptomycin). Cell suspension was added to a white sterile 384-well cell culture plate at 15 μL/well. The test compound was dissolved in DMSO to prepare a 10 mM stock solution. The compound was serially diluted with culture medium at a ratio of 1:3, for a total of 10 concentration points. A control with the same DMSO volume was set, with two replicates for each concentration. The diluted compound was added to the 384-well cell culture plate containing cells at 2.5 μL/well and incubated at 37° C., 5% CO2 for 15 minutes. Z-VAD-FMK (Biyuntian, catalog number: C1202-5 mg) was dissolved in DMSO to prepare a 20 mM stock solution. SM-164 (Biyuntian, catalog number: SC0114-10 mM) was dissolved in DMSO to prepare a 10 mM stock solution and diluted to 0.1 mM. hTNF-α (Sino Biological Inc., catalog number: 10602-HNAE) was dissolved in sterile water to 10 μg/mL. RPMI 1640 medium (supplemented with 10% fetal bovine serum, 100 U/mL penicillin and 100 μg/mL streptomycin) was used to prepare the TSZ mixture, containing 133.3 μM Z-VAD-FMK, 33.3 ng/ml hTNF-α and 0.3 μM SM-164. After 15 minutes' coculture of compounds and cells, 7.5 μL of TSZ mixture was added to each well, mixed evenly, and cultured at 37° C., 5% CO2 for 20 hours. After 20 hours, the culture plate was removed and placed at room temperature for 30 minutes. Then, 10 μL of CellTiter-Glo reagent pre-equilibrated at room temperature was added to each well and incubated. After 10 minutes' incubation at room temperature in the dark, the chemiluminescence were measured using a microplate reader. The inhibition rate was calculated as Inh %=(1−(no TSZ-TSZ & compound)/(no TSZ-TSZ))×100. The EC50 was obtained by fitting the nonlinear regression curve log [inhibitor] vs. response−variable slope (four parameters) in GraphPad Prism.

Take `CN1C(=O)[C@@H](NC(=O)C(=O)NCCc2ccccc2)COc2cc(C#CC3CC3)ccc21` [Example 4, (S)—N^1-(8-(cyclopropylethynyl)-5-methyl-4-oxo-2,3,4,5-tetrahydrobenzo[b][1,4]oxazepin-3-yl)-N^2-phenethyloxalamide]: the “Inhibition rate range of compounds (1 μM) on U937 cell necroptosis” value (from here on “Inhibition rate range of compounds”) with U937 cells [1] was “B (B: 50-89%)”. For the same compound, in the assay with U937 cells [2], the half-maximal effective concentration (EC50) is 0.5 to 2 µM.
Taken in the same sequence, the figures for `CN1C(=O)C(NC(=O)C(=O)NCCc2ccccc2)CCc2cc(C#CC3CC3)ccc21` (stereo not shown) [Example 64, N^1-(7-(cyclopropylethynyl)-1-methyl-2-oxo-2,3,4,5-tetrahydro-1H-benzo[b]azepin-3-yl)-N^2-phenethyloxalamide] were “B (B: 50-89%)” and 0.5 to 2 µM.
Take `CN1C(=O)C(NC(=O)C(=O)NCCc2ccccc2)CCc2ccccc21` (stereo not shown) [Example 67, N^1-(1-methyl-2-oxo-2,3,4,5-tetrahydro-1H-benzo[b]azepin-3-yl)-N^2-phenethyloxalamide]: the “Inhibition rate range of compounds” value with U937 cells [1] is recorded as “A (A: ≥90%)”. The EC50 with U937 cells [2] fell in the range of 0.1 to 0.5 µM.
Taken in the same sequence, the figures for `CN1C(=O)[C@@H](NC(=O)C(=O)NCCc2ccccc2)COc2ccc(C#CC3CNC3)cc21` [Example 90, (S)—N^1-(7-(azetidin-3-ylethynyl)-5-methyl-4-oxo-2,3,4,5-tetrahydrobenzo[b][1,4]oxazepin-3-yl)-N^2-phenethyloxalamide] were “B (B: 50-89%)” and 0.1 to 0.5 µM.
Taken in the same sequence, the figures for `CN1C(=O)[C@@H](NC(=O)C(=O)NCCc2cccc(F)c2)COc2ccc(C#CC3(O)CCCCC3)cc21` [Example 112, (S)—N^1-(3-fluorophenethyl)-N^2-(7-((1-hydroxycyclohexyl)ethynyl)-5-methyl-4-oxo-2,3,4,5-tetrahydrobenzo[b][1,4]oxazepin-3-yl)oxalamide] were “A (A: ≥90%)” and less than 0.1 µM.
Turning to `C[C@H](NC(=O)C(=O)N[C@H]1COc2ccc(C#CCN3CC[C@@H](O)C3)cc2N(C)C1=O)c1ccccc1` [Example 127, N^1-((S)-7-(3-((R)-3-hydroxypyrrolidin-1-yl)prop-1-yn-1-yl)-5-methyl-4-oxo-2,3,4,5-tetrahydrobenzo[b][1,4]oxazepin-3-yl)-N^2-((S)-1-phenylethyl)oxalamide], the “Inhibition rate range of compounds” value in the assay with U937 cells [1] is on record as “B (B: 50-89%)”. Further, the EC50 with U937 cells [2] lay in the range of 0.1 to 0.5 µM.
Taken in the same sequence, the figures for `C[C@H](NC(=O)C(=O)N[C@H]1COc2ccc(C#CCN3CC[C@H](O)C3)cc2N(C)C1=O)c1ccccc1` [Example 129, N^1-((S)-7-(3-((S)-3-hydroxypyrrolidin-1-yl)prop-1-yn-1-yl)-5-methyl-4-oxo-2,3,4,5-tetrahydrobenzo[b][1,4]oxazepin-3-yl)-N^2-((S)-1-phenylethyl)oxalamide] were “B (B: 50-89%)” and 0.1 to 0.5 µM.
Taken in the same sequence, the figures for `C[C@H](NC(=O)C(=O)N[C@H]1COc2ccc(C#CC3(O)COC3)cc2N(C)C1=O)c1ccccc1` [Example 133, N^1-((S)-7-((3-hydroxyoxetan-3-yl)ethynyl)-5-methyl-4-oxo-2,3,4,5-tetrahydrobenzo[b][1,4]oxazepin-3-yl)-N^2-((S)-1-phenylethyl)oxalamide] were “B (B: 50-89%)” and 0.1 to 0.5 µM.
`C[C@H](NC(=O)C(=O)N[C@H]1COc2ccc(C#CCN3CCOCC3)cc2N(C)C1=O)c1ccccc1` [Example 141, N^1-((S)-5-methyl-7-(3-morpholinoprop-1-yn-1-yl)-4-oxo-2,3,4,5-tetrahydrobenzo[b][1,4]oxazepin-3-yl)-N^2-((S)-1-phenylethyl)oxalamide]: the “Inhibition rate range of compounds” value with U937 cells [1] is on record as “A (A: ≥90%)”. The 50% effective concentration (EC50) in the assay with U937 cells [2] is less than 0.1 µM.
In the case of `C[C@@H](NC(=O)C(=O)N[C@H]1COc2ccc(C#CC3CN(CCO)C3)cc2N(C)C1=O)c1ccccc1` [Example 150, N^1-((S)-7-((1-(2-hydroxyethyl)azetidin-3-yl)ethynyl)-5-methyl-4-oxo-2,3,4,5-tetrahydrobenzo[b][1,4]oxazepin-3-yl)-N^2-((R)-1-phenylethyl)oxalamide], in the assay with U937 cells [1], the “Inhibition rate range of compounds” value is “A (A: ≥90%)”. Moreover, in the assay with U937 cells [2], the EC50 was less than 0.1 µM.
The matching figures for `C[C@@H](NC(=O)C(=O)N[C@H]1CNc2ccc(C#CCN3CCOCC3)cc2N(C)C1=O)c1ccccc1` [Example 165, N^1-((S)-1-methyl-8-(3-morpholinoprop-1-yn-1-yl)-2-oxo-2,3,4,5-tetrahydro-1H-benzo[b][1,4]diazepin-3-yl)-N^2-((R)-1-phenylethyl)oxalamide]: “A (A: ≥90%)” and less than 0.1 µM.
